Results: US6403343B2, “Method of producing a taxane-type diterpene and a method of obtaining cultured cells which produce the taxane-type dilterpene at a high rate” (Mitsui Chemicals, Inc., priority 1993, dated 2002)

System: cultured cells of Taxus baccata LINN
Assay: Growth rate and taxane yield, 21-day shake culture of Taxus baccata cells with heavy metal compound, amine, antiethylene agent or Ethrel added
Type: cell-based
Description: (§1) One gram (fresh weight) of the callus was inoculated to an Erlenmeyer flask containing 20 ml of liquid Woody Plant Medium to which the above-mentioned component was added to give the same concentration and shake culture was carried out with a rotary shaker (amplification of 25 mm, 100 rpm) and the callus was subcultured in every 21 days to accelerate the growth rate thereof.
Then shake culture was carried out at 25° C. for 21 days.
After completing the culture, cultured cells of Taxus baccata LINN were harvested by filtration and lyophilized, then the dry weight was measured to obtain the growth rate thereof. Taxane-type diterpenes were extracted from the dried callus with methanol and the like, and they were determined by comparing with standard taxol, cephalomannine, and baccatin III using high performance liquid chromatography to measure the yields of the taxane-type diterpenes.
as §1
One gram (fresh weight) of the cultured cells thus obtained was inoculated to an Erlenmeyer flask containing 20 ml of liquid Woody Plant Medium to which the above-mentioned component had been added to give the same concentration, then spermidine was added to it as amine to give the final concentration of 10^−9M-1M. Then shake culture was carried out at 25° C. for 21 days.
After completing the culture, cultured cells of Taxus baccata LINN were harvested by filtration and lyophilized, then the dry weight was measured to obtain the growth rate thereof. Taxane-type diterpenes were extracted from the dried cells with methanol and the like, and they were determined by comparing with standard taxol, cephalomannine, and baccatin III using high performance liquid chromatography to measure the yields of the taxane-type diterpene.
One gram (fresh weight) of the callus was inoculated to an Erlenmeyer flask containing 20 ml of liquid Woody Plant Medium to which the above-mentioned component had been added to give the same concentration and shake culture was carried out with a rotary shaker (amplification of 25 mm, 100 rpm) and the callus was subcultured in every 21 days to accelerate the growth rate thereof.
One gram (fresh weight) of the cultured cells thus obtained was inoculated to an Erlenmeyer flask containing 20 ml of liquid Woody Plant Medium to which the above-mentioned component had been added to give the same concentration, and shake culture was carried out at 25° C. for 14 days.

[1] = 1 M added on 14th day, 7 more days
[2] = 10^−1 M added on 14th day, 7 more days
[3] = 10^−2 M added on 14th day, 7 more days
[4] = 10^−3 M added on 14th day, 7 more days
[5] = 10^−4 M added on 14th day, 7 more days
[6] = 10^−5 M added on 14th day, 7 more days
[7] = 10^−6 M added on 14th day, 7 more days
[8] = 10^−7 M added on 14th day, 7 more days
[9] = 10^−8 M added on 14th day, 7 more days
[10] = 10^−9 M added on 14th day, 7 more days
[11] = 10^−1 M added at start, 21 days
[12] = 10^−2 M added at start, 21 days
[13] = 10^−3 M added at start, 21 days
[14] = 10^−4 M added at start, 21 days
[15] = 10^−5 M added at start, 21 days
[16] = 10^−6 M added at start, 21 days
[17] = 10^−7 M added at start, 21 days
[18] = 10^−8 M added at start, 21 days
[19] = 10^−9 M added at start, 21 days

CCCOC(=O)c1cc(O)c(O)c(O)c1 [propyl gallate] was tested, and the growth rate [1] was 1.1 times, the “total yield of taxane” value [1] was 0.01 mg/L and the “yield of baccatin III” value [1] was 0.01 mg/L. For the same compound, the yield of cephalomannine [1] was 0 mg/L, the yield of taxol [1] was 0 mg/L and the growth rate [2] was 1.9 times. For the same compound, the “total yield of taxane” value [2] was 1.38 mg/L, the “yield of baccatin III” value [2] was 0.48 mg/L and the yield of cephalomannine [2] was 0.25 mg/L. The yield of taxol [2] was 0.65 mg/L, the growth rate [3] was 2.9 times and the “total yield of taxane” value [3] was 7.03 mg/L. For the same compound, the “yield of baccatin III” value [3] was 0.69 mg/L, the yield of cephalomannine [3] was 2.01 mg/L and the yield of taxol [3] was 4.33 mg/L. The growth rate [4] was 3.2 times, the “total yield of taxane” value [4] was 12.10 mg/L and the “yield of baccatin III” value [4] was 0.84 mg/L. For the same compound, the yield of cephalomannine [4] was 4.30 mg/L, the yield of taxol [4] was 6.96 mg/L and the growth rate [5] was 3.0 times. The “total yield of taxane” value [5] was 12.27 mg/L, the “yield of baccatin III” value [5] was 0.87 mg/L and the yield of cephalomannine [5] was 4.42 mg/L. For the same compound, the yield of taxol [5] was 6.98 mg/L, the growth rate [6] was 3.0 times and the “total yield of taxane” value [6] was 16.13 mg/L. For the same compound, the “yield of baccatin III” value [6] was 2.82 mg/L, the yield of cephalomannine [6] was 5.07 mg/L and the yield of taxol [6] was 8.24 mg/L. For the same compound, the growth rate [7] was 3.1 times, the “total yield of taxane” value [7] was 13.95 mg/L and the “yield of baccatin III” value [7] was 1.91 mg/L. For the same compound, the yield of cephalomannine [7] was 4.38 mg/L, the yield of taxol [7] was 7.66 mg/L and the growth rate [8] was 2.7 times. The “total yield of taxane” value [8] was 2.79 mg/L, the “yield of baccatin III” value [8] was 0.55 mg/L and the yield of cephalomannine [8] was 0.72 mg/L. For the same compound, the yield of taxol [8] was 1.52 mg/L, the growth rate [9] was 2.7 times and the “total yield of taxane” value [9] was 1.74 mg/L. The “yield of baccatin III” value [9] was 0.42 mg/L, the yield of cephalomannine [9] was 0.68 mg/L and the yield of taxol [9] was 0.74 mg/L. For the same compound, the growth rate [10] was 2.7 times, the “total yield of taxane” value [10] was 1.37 mg/L and the “yield of baccatin III” value [10] was 0.41 mg/L. The yield of cephalomannine [10] was 0.59 mg/L and the yield of taxol [10] was 0.37 mg/L.
With NCCCCN [putrescine] the growth rate (1 M added at start, 21 days) was 1.0 times, the “total yield of taxane” value (1 M added at start, 21 days) was 0.36 mg/L and the “yield of baccatin III” value (1 M added at start, 21 days) was 0.01 mg/L. For the same compound, the yield of cephalomannine (1 M added at start, 21 days) was 0.22 mg/L, the yield of taxol (1 M added at start, 21 days) was 0.13 mg/L and the growth rate [11] was 1.1 times. For the same compound, the “total yield of taxane” value [11] was 2.74 mg/L, the “yield of baccatin III” value [11] was 0.80 mg/L and the yield of cephalomannine [11] was 0.97 mg/L. The yield of taxol [11] was 0.97 mg/L, the growth rate [12] was 1.8 times and the “total yield of taxane” value [12] was 3.18 mg/L. For the same compound, the “yield of baccatin III” value [12] was 1.13 mg/L, the yield of cephalomannine [12] was 0.99 mg/L and the yield of taxol [12] was 1.06 mg/L. The growth rate [13] was 2.2 times, the “total yield of taxane” value [13] was 6.90 mg/L and the “yield of baccatin III” value [13] was 1.95 mg/L. The yield of cephalomannine [13] was 1.88 mg/L, the yield of taxol [13] was 3.07 mg/L and the growth rate [14] was 2.6 times. For the same compound, the “total yield of taxane” value [14] was 22.65 mg/L, the “yield of baccatin III” value [14] was 6.60 mg/L and the yield of cephalomannine [14] was 5.25 mg/L. For the same compound, the yield of taxol [14] was 10.80 mg/L, the growth rate [15] was 3.1 times and the “total yield of taxane” value [15] was 23.79 mg/L. For the same compound, the “yield of baccatin III” value [15] was 6.98 mg/L, the yield of cephalomannine [15] was 5.37 mg/L and the yield of taxol [15] was 11.44 mg/L. For the same compound, the growth rate [16] was 3.0 times, the “total yield of taxane” value [16] was 19.44 mg/L and the “yield of baccatin III” value [16] was 5.74 mg/L. The yield of cephalomannine [16] was 5.51 mg/L, the yield of taxol [16] was 8.19 mg/L and the growth rate [17] was 2.7 times. The “total yield of taxane” value [17] was 6.88 mg/L, the “yield of baccatin III” value [17] was 1.10 mg/L and the yield of cephalomannine [17] was 2.31 mg/L. The yield of taxol [17] was 3.47 mg/L, the growth rate [18] was 2.8 times and the “total yield of taxane” value [18] was 2.94 mg/L. For the same compound, the “yield of baccatin III” value [18] was 0.40 mg/L, the yield of cephalomannine [18] was 1.02 mg/L and the yield of taxol [18] was 1.52 mg/L. The growth rate [19] was 2.8 times, the “total yield of taxane” value [19] was 1.75 mg/L and the “yield of baccatin III” value [19] was 0.36 mg/L. For the same compound, the yield of cephalomannine [19] was 0.70 mg/L and the yield of taxol [19] was 0.69 mg/L.
O=[N+]([O-])[O-].[Ag+] [silver nitrate] was tested, and the growth rate [13] was 2.8 times, the “total yield of taxane” value [13] was 23.21 mg/L and the “yield of baccatin III” value [13] was 3.01 mg/L. For the same compound, the yield of cephalomannine [13] was 7.54 mg/L, the yield of taxol [13] was 12.66 mg/L and the growth rate [4] was 2.8 times. The “total yield of taxane” value [4] was 20.58 mg/L, the “yield of baccatin III” value [4] was 2.18 mg/L and the yield of cephalomannine [4] was 6.49 mg/L. It also gave a yield of taxol [4] of 11.91 mg/L.
